Experimental data from patent publication US10731164B2, “Aptamer conjugates with N-heterocyclic carbene metal complexes for targeted drug delivery” (University of Florida Research Foundation, Inc., priority 2014, dated 2020).

Columns and labels:
CCRF-CEM cell line = assay: MTS cell viability assay, CCRF-CEM cell line; type: cell-based; conditions: 4 h incubation then 48 h
Protocol: All cell lines used in this research were cultured in American Type Culture Collection recommended medium, with 10% fetal bovine serum (Invitrogen, Carlsbad, Calif.) and 0.5 mg/mL penicillin-streptomycin (American Type Culture Collection) at 37° C. under a 5% CO2 atmosphere. CCRF-CEM (T-cell line) and K562 ([…]) were cultured in RPMI 1640 medium; MDA-MB-231 (breast cancer cells were cultured in L-15 medium; DU145 (prostate cancer cell) was cultured in EMEM medium; Hela (cervical cancer cell), HEK293 (human kidney cell) and HU1545v (human untransformed liver cell) were cultured in DMEM medium. Cells were washed before and after incubation with washing buffer [4.5 g/L glucose and 5 mM MgCl2 in Dulbecco's PBS with calcium chloride and magnesium chloride (Sigma-Aldrich)]. Binding buffer was prepared by adding yeast tRNA (0.1 mg/mL; Sigma-Aldrich) and BSA (1 mg/mL; Fisher Scientific) to the washing buffer to reduce background binding. All reagents for buffer preparation and HPLC purification came from Fisher Scientific. […]
A cell viability assay to measure the cytotoxicity of the aptamer-drug conjugate 21 and aptamer-ligand conjugate 28 were performed, as indicated in FIG. 13. […] The assay was allotted 2 h at 37° C. for development, and then the 490 nm absorbance of each well was collected on a Tecan plate 110 reader. […]

[1] = system: cervical carcinoma (HeLa) cells; conditions: background; cited from earlier work
[2] = system: cis-platin resistant cancer cells; conditions: background; cited from earlier work
CCRF-CEM cells = assay: Flow cytometry analysis, CCRF-CEM cells; type: cell-based; conditions: 250 nM, 2 h at 4° C.
Protocol: Flow Cytometry Analysis was conducted as follows. Cells were plated in a 35 mm cell culture dish (Corning Incorporated, Corning, N.Y., USA) and grown to around 80% confluency for 24 h before the experiments. Cells were washed twice with 1 mL PBS and then incubated with the prepared aptamer-drug conjugate and LIB-drug conjugate at the concentration of 250 nM for 2 h at 4° C. After incubation, cells were washed with washing buffer three times, dispersed in 80 μL binding buffer, and finally subjected to flow cytometry analysis using a FACScan cytometer (Becton Dickinson Immunocytometry Systems, San Jose, Calif., USA). Fluorescence was determined by counting 30,000 events, and data were analyzed with FlowJo software.
Flow cytometry assays of conjugate 30 (sgc8c-27) with the K562 cell line (left) and the CCRF-CEM cell line are shown in FIGS. 26A and 26B, respectively. Random aptamer sequences conjugated to 27 to create LIB-27 were used as negative control. […] In Similar manner, flow cytometry analysis of MDA-MB-231 cell, PC3 cell, HEK293 cell and HU1545 cell, FIGS. 27A-27D, respectively, after incubated with 32 (AS1411-29) were conducted. AS1411 aptamer was used as positive control, and random library sequences was used as negative control.

1-(anthracen-9-ylmethyl)-3-(4-N-sgc8c-aptamer-carbamoylbenzyl) benzo[d]imidazolium gold(I) chloride [complex 27]
IC50 (CCRF-CEM cell line): 31.1 ± 2.11 µM

CC(=O)OC[C@H]1O[C@@H]([S-])[C@H](OC(C)=O)[C@@H](OC(C)=O)[C@@H]1OC(C)=O.CCP(CC)CC.[Au+] [Auranofin]
activity against HeLa cells in vitro [1]: highly active | effect against cis-platin resistant cancer cells [2]: effective

sgc8c: leukemia-specific aptamer 5′-ATCTAACTGCTGCGCCGCCGGGAAAATACTGTACGGTTAGA-3′ (ATCTAACTGCTGCGCCGCCGGGAAAATACTGTACGGTTAGA; listed as DNA, chemistry not fully specified)
fluorescence intensity of cells (flow cytometry) (CCRF-CEM cells): fluorescence intensity increases
